Key:
[1] = system: ryegrass (LOLMU) biotypes; assay: Greenhouse test, control of resistant weed biotypes, post-emergence, ryegrass; format: in vivo, Lolium multiflorum; conditions: for Herbicidal activity: post-emergence, scale 0 to 100
Protocol: The herbicidal activity of herbicide A on resistant weed biotypes was tested in comparison with certain commercial herbicides by the following greenhouse experiments:
The culture containers used were plastic flowerpots containing loamy sand with approximately 3.0% of humus as the substrate. The seeds of the test plants were sown separately for each species. Six blackgrass (ALOMY) (10-103, 10-170, 09-591, 10-123, 11-215, 11-146) and six ryeg rass (LOLMU) (12-166, 12-143, 12-165, 12-307, 13-304, 13-313) biotypes with varying degrees of resistance towards a range of modes of action according to the HRAC (Herbicide Resistance Action Committee) classification on mode of action 2010 (see e.g http://www.hracglobal.com/pages/classificationofherbicidesiteofaction.aspx) were tested alongside two non-resistant biotypes (14-116 and 13-243), see Tables 1 and 2 below.
For the post-emergence treatment, the test plants were first grown to a height of 3 to 15 cm, depending on the plant habit, and only then treated with the active ingredients which had been suspended or emulsified in water. For this purpose, the test plants were either sown directly and grown in the same containers, or they were first grown separately as seedlings and transplanted into the test containers a few days prior to treatment.
Depending on the species, the plants were kept at 10-25° C. or 20-35° C. The test period extended over 2 to 4 weeks. During this time, the plants were tended, and their response to the individual treatments was evaluated.
The racemic mixture (±)-2-exo-(2-Methylbenzyloxy)-1-methyl-4-isopropyl-7-oxabicyclo[2.2.1]heptane was used as herbicide A and formulated as emulsifiable concentrates with an active ingredient concentration of 50 g/l, 100 g/l or 750 g/l respectively.
Flufenacet was used as a commercial concentrated solution formulation having an active ingredient concentration of 500 g/l (Cadou).
Imazamox was used as a water dispersible granule (70% WG).
Evaluation of the herbicidal activity was carried out using a scale from 0 to 100. 100 means complete destruction of at least the aerial moieties, and 0 means no damage, or normal course of growth. A good herbicidal activity is given at values of at least 70 and a very good herbicidal activity is given at values of at least 85.

BRSNW = assay: Greenhouse test, solo and combination, post-emergence, 20 DAT; format: in vivo, Brassica napus
Protocol: (§1) The test plants have been seeded, separately for each species, in plastic containers in sandy loamy soil containing 5% of organic matter.
(§2) For the post-emergence treatment, the plants were first grown to the 2 leaf station (GS 12) and applied at GS 12-19 depending on the species. The herbicidal compositions were suspended or emulsified in water as distribution medium and sprayed using finely distributing nozzles.
(§3) The plants have been cultivated due to their individual requirements at 10-25° C. and 20-35° C. The plants were irrigated due to their necessity.
(§4) The racemic mixture (±)-2-exo-(2-Methylbenzyloxy)-1-methyl-4-isopropyl-7-oxabicyclo[2.2.1]heptane was used as herbicide A and formulated as emulsifiable concentrate having an active ingredient concentration of 750 g/l.
(§5) Cyhalofop-butyl (herbicide B.5) was used as an emulsifiable concentrate (EC) formulation having an active ingredient concentration of 200 g/l.
(§6) Metsulfuron-methyl (herbicide B.53) was used as a water soluble granule (SG) formulation having an active ingredient concentration of 20%.
(§7) Bispyribac-sodium (herbicide B.23) was used as a soluble concentrate (SL) formulation having an active ingredient concentration of 408 g/l.
(§8) Quizalofop-P-ethyl (herbicide B.217) was used as a suspension concentrate (SC) formulation having an active ingredient concentration of 106 g/l.
(§9) In the following experiments, the herbicidal activity for the individual herbicide compounds (solo and mixture applications) was assessed 20 days after treatment (DAT).
(§10) The evaluation for the damage on undesired weeds caused by the chemical compositions was carried out using a scale from 0 to 100%, compared to the untreated control plants. Here, 0 means no damage and 100 means complete destruction of the plants.
(§11) The plants used in the greenhouse experiments belonged to the following species:
(§12) E=X+Y−(X·Y/100) • where X=effect in percent using herbicide A at an application rate a; • Y=effect in percent using herbicide B at application rate b; • E=expected effect (in %) of herbicide A+herbicide B at application rates a+b.
(§13) The value E corresponds to the effect (plant damage or injury) which is to be expected if the activity of the individual compounds is additive. If the observed effect is higher than the value E calculated according to the Colby equation, a synergistic effect is present.
(§14) Tables 3 to 6 below relate the herbicidal activity, in greenhouse trials, of the individual actives and the combination applied at different rates and ratios, in post-emergence application at 20 days after treatment (DAT).

ALOMY = assay: as above; format: in vivo, Alopecurus myosuroides
Protocol: as §1, §2, §3, §4, §5, §6, §7, §8, §9, §10, §11, §12, §13, §14

LOLRI = assay: as above; format: in vivo, Lolium rigidum
Protocol: as §1, §2, §3, §4, §5, §6, §7, §8, §9, §10, §11, §12, §13, §14

BROST = assay: as above; format: in vivo, Bromus sterilis
Protocol: as §1, §2, §3, §4, §5, §6, §7, §8, §9, §10, §11, §12, §13, §14

GALAP = assay: as above; format: in vivo, Galium aparine
Protocol: as §1, §2, §3, §4, §5, §6, §7, §8, §9, §10, §11, §12, §13, §14

PAPRH = assay: as above; format: in vivo, Papaver rhoeas
Protocol: as §1, §2, §3, §4, §5, §6, §7, §8, §9, §10, §11, §12, §13, §14

## (±)-2-exo-(2-Methylbenzyloxy)-1-methyl-4-isopropyl-7-oxabicyclo[2.2.1]heptane [Herbicide A]
[1]; BT 12-143, resistant HRAC group A, B, C, E, K, 125 g ai/ha
  Herbicidal activity: 80
[1]; BT 12-143, resistant HRAC group A, B, C, E, K, 250 g ai/ha
  Herbicidal activity: 95
[1]; BT 12-165, resistant HRAC group A, B, E, K, 125 g ai/ha
  Herbicidal activity: 95
[1]; BT 12-165, resistant HRAC group A, B, E, K, 250 g ai/ha
  Herbicidal activity: 100
[1]; BT 12-166, resistant HRAC group A, B, E, K, 125 g ai/ha
  Herbicidal activity: 90
[1]; BT 12-166, resistant HRAC group A, B, E, K, 250 g ai/ha
  Herbicidal activity: 90
[1]; BT 12-307, resistant HRAC group B, F, K, O, 125 g ai/ha
  Herbicidal activity: 70
[1]; BT 12-307, resistant HRAC group B, F, K, O, 250 g ai/ha
  Herbicidal activity: 90
[1]; BT 13-243, Sensitive standard, 125 g ai/ha
  Herbicidal activity: 75
[1]; BT 13-243, Sensitive standard, 250 g ai/ha
  Herbicidal activity: 90
[1]; BT 13-304, resistant HRAC group A, B, E, K, 125 g ai/ha
  Herbicidal activity: 85
[1]; BT 13-304, resistant HRAC group A, B, E, K, 250 g ai/ha
  Herbicidal activity: 95
[1]; BT 13-313, resistant HRAC group A, B, C, E, K, 125 g ai/ha
  Herbicidal activity: 70
[1]; BT 13-313, resistant HRAC group A, B, C, E, K, 250 g ai/ha
  Herbicidal activity: 95
[1]; post-emergence treatment, various biotypes of ryegrass (LOLMU) with varying degrees of resistance
  herbicidal activity (summary in words): very good herbicidal activity (a very good herbicidal activity is given at values of at least 85)
BRSNW; solo application 62.5 g ai/ha
  Herbicidal activity: 0%
BRSNW; solo application 125 g ai/ha
  Herbicidal activity: 0%
BRSNW; solo application 500 g ai/ha
  Herbicidal activity: 0%
ALOMY; solo application 62.5 g ai/ha
  Herbicidal activity: 30%
ALOMY; solo application 125 g ai/ha
  Herbicidal activity: 55%
ALOMY; solo application 250 g ai/ha
  Herbicidal activity: 70%
ALOMY; solo application 500 g ai/ha
  Herbicidal activity: 80%
LOLRI; solo application 62.5 g ai/ha
  Herbicidal activity: 15%
LOLRI; solo application 125 g ai/ha
  Herbicidal activity: 30%
LOLRI; solo application 250 g ai/ha
  Herbicidal activity: 50%
BROST; solo application 62.5 g ai/ha
  Herbicidal activity: 0%
BROST; solo application 125 g ai/ha
  Herbicidal activity: 0%
BROST; solo application 250 g ai/ha
  Herbicidal activity: 15%
BROST; solo application 500 g ai/ha
  Herbicidal activity: 25%
GALAP; solo application 62.5 g ai/ha
  Herbicidal activity: 25%
GALAP; solo application 125 g ai/ha
  Herbicidal activity: 35%
GALAP; solo application 250 g ai/ha
  Herbicidal activity: 35%
GALAP; solo application 500 g ai/ha
  Herbicidal activity: 45%
PAPRH; solo application 62.5 g ai/ha
  Herbicidal activity: 0%
PAPRH; solo application 250 g ai/ha
  Herbicidal activity: 40%
PAPRH; solo application 500 g ai/ha
  Herbicidal activity: 60%
